In general, IC50 refers to the point on the concentration scale where inhibition reaches its midpoint. Read a high IC50 as lower potency.

Experiment [1] addresses T1, Met kinase (Homo sapiens, UniProt P08581). Briefly: Met kinase inhibition (cell). Format: cell-based.
Target sequence in this assay (P08581 25-1390): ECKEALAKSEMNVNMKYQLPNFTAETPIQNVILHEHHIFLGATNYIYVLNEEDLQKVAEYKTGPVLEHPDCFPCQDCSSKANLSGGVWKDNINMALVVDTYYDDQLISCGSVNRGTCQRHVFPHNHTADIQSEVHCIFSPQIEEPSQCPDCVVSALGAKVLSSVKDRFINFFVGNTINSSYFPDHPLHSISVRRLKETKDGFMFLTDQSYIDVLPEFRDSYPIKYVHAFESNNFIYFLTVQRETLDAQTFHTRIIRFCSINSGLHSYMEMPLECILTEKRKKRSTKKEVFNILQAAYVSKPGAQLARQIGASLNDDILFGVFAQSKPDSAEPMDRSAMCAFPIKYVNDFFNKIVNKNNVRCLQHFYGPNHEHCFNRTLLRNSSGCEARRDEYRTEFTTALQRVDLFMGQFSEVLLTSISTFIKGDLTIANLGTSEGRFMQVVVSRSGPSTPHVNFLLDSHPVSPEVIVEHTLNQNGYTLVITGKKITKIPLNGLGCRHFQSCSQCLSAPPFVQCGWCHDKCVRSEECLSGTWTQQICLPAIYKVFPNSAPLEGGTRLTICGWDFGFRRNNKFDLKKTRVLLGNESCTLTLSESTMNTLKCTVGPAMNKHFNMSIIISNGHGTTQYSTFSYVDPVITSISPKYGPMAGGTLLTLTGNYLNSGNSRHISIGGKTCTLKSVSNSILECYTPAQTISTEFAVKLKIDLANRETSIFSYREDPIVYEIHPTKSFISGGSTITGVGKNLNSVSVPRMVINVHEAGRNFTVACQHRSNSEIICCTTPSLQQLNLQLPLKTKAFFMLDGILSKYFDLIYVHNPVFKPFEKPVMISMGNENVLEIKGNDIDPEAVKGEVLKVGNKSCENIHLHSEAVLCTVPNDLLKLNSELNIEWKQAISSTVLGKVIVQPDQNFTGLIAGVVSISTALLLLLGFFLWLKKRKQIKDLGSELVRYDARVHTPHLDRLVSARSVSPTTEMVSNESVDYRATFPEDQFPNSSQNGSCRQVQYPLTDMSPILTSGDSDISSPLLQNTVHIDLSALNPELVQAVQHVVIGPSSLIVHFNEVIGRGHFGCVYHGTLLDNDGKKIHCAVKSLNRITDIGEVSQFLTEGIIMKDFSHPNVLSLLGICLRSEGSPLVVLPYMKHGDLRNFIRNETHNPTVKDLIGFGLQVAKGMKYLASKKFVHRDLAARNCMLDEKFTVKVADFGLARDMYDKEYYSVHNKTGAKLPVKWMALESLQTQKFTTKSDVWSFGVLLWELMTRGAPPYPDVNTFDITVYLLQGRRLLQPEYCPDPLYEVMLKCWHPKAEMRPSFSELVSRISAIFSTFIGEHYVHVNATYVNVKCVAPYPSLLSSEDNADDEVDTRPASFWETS
In experiment [2] the target is T1, Met kinase. Briefly: Met kinase flashplate method (enzyme). Format: biochemical. The arrangement: 6His (N); purchased Upstate 14-526; host or cells: Sf21 insect cells (S. frugiperda), baculovirus. The settings on record: Met kinase inhibition. The text has this:
According to the manufacturer's data (Met, active, Upstate, catalogue No. 14-526), Met kinase is expressed for the purposes of protein production in insect cells (Sf21; S. frugiperda) and subsequent affinity-chromatographic purification as “N-terminal 6His-tagged” recombinant human protein in a baculovirus expression vector.
Flashplate Method (Met Kinase)
The test plates used are 96-well Flashplate® microtitre plates from Perkin Elmer (Cat. No. SMP200). The components of the kinase reaction described below are pipetted into the assay plate. The Met kinase and the substrate poly Ala-Glu-Lys-Tyr, (pAGLT, 6:2:5:1), are incubated for 3 hrs at room temperature with radioactively labelled ^33P-ATP in the presence and absence of test substances in a total volume of 100 μl. The reaction is terminated using 150 μl of a 60 mM EDTA solution. After incubation for a further 30 min at room temperature, the supernatants are filtered off with suction, and the wells are washed three times with 200 μl of 0.9% NaCl solution each time. The measurement of the bound radioactivity is carried out by means of a scintillation measuring instrument (Topcount NXT, Perkin-Elmer).
The full value used is the inhibitor-free kinase reaction. This should be approximately in the range 6000-9000 cpm. The pharmacological zero value used is staurosporin in a final concentration of 0.1 mM. The inhibitory values (IC50) are determined using the RS1_MTS program.
Kinase reaction conditions per well:
10 μl of substance to be tested in assay buffer with 10% of DMSO
10 μl of ATP (final concentration 1 μM cold, 0.35 μCi of ^33P-ATP)
50 μl of Met kinase/substrate mixture in assay buffer;
• (10 ng of enzyme/well, 50 ng of pAGLT/well) • Solutions used: • Assay buffer: • 50 mM HEPES • 3 mM magnesium chloride • 3 μM sodium orthovanadate • 3 mM manganese(II) chloride • 1 mM dithiothreitol (DTT) • pH=7.5 (to be set using sodium hydroxide) • Stop solution: • 60 mM Titriplex III (EDTA) • ^33P-ATP: Perkin-Elmer; • Met kinase: Upstate, Cat, No. 14-526, Stock 1 μg/10 μl; spec. activity 954 U/mg; • Poly-Ala-Glu-Lys-Tyr, 6:2:5:1: Sigma Cat. No. P1152 In-Vivo Tests
Target sequence in this assay (P08581 974-1390 limits assumed): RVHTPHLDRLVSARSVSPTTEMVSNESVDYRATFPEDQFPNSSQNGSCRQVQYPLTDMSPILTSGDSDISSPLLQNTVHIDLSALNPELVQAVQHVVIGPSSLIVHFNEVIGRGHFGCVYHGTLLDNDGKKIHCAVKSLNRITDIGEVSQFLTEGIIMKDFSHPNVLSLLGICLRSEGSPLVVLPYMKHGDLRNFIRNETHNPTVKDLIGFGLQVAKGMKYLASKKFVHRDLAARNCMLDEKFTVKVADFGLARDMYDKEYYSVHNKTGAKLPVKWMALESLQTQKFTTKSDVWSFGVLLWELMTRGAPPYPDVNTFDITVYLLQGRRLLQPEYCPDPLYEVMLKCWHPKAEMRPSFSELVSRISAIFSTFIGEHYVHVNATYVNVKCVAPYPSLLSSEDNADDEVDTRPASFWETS

As to `COc1ccc2nnc(C(F)(F)c3cccc(-c4ncc(-c5cnn(CCN6CCCC6)c5)cn4)c3)n2n1` [A20], the IC50 in experiment [1] and in experiment [2] was 1 to 100 nM each time.

Turning to `CNC(=O)c1ccc2nnc(Cc3cccc(-c4ncc(OCCOC)cn4)c3)n2n1` [A28], the IC50 in experiment [1] lay in the range of 100 to 10000 nM; in experiment [2], 1 to 100 nM.

`COCCOc1cnc(-c2cccc(Cc3nnc4ccc(C(=O)O)nn34)c2)nc1` [A38, 3-{3-[5-(2-methoxyethoxy)pyrimidin-2-yl]benzyl}-1,2,4-triazolo[4,3-b]pyridazine-6-carboxylic acid]: the figures for the half-inhibitory concentration (IC50) in experiment [1] and in experiment [2] were 100 to 10000 nM and 1 to 100 nM, respectively.

On to `CCCNC(=O)c1ccc2nnc(Cc3cccc(-c4ncc(OCCOC)cn4)c3)n2n1` [A39, N-propyl-3-{3-[5-(2-methoxyethoxy)pyrimidin-2-yl]benzyl}-1,2,4-triazolo[4,3-b]pyridazine-6-carboxamide], for which the IC50 in experiment [1] is 100 to 10000 nM; in experiment [2], 1 to 100 nM.

For the compound `COCCOc1cnc(-c2cccc(Cc3nnc4ccc(C(=O)N(C)C)nn34)c2)nc1` [A40], the figures for the IC50 in experiment [1] and in experiment [2] were 100 to 10000 nM and 1 to 100 nM, respectively.

On to `COCCOc1cnc(-c2cccc(Cc3nnc4ccc(C(=O)NCCO)nn34)c2)nc1` [A41], for which the IC50 was more than 10000 nM in experiment [1] and 1 to 100 nM in experiment [2].

Values taken from patent US8426397B2, “3 (3-pyrimidin-2-ylbenzyl)-1,2,4-triazolo[4,3-b]pyridazine derivatives” (Merck Patent Gesellschaft mit Beschränkter Haftung, priority 2008, dated 2013).
